Patent US8101766B2, “Crystalline form of a biphenyl compound” (Theravance, Inc., priority 2004, dated 2012)

Experiments:
Type in all cases: cell-based
β2 adrenergic receptor [1] = target: T1, β2 adrenergic receptor (Homo sapiens, UniProt P07550); experiment: Whole-cell cAMP Flashplate assay in CHO cell lines heterologously expressing human β2 adrenergic receptor; design: expressed in transfected cells; settings: CHO-K1 cells expressing cloned human β2
Experimental: Cells were rinsed with PBS and detached in dPBS (Dulbecco's Phosphate Buffered Saline, without CaCl2 and MgCl2) containing 2 mM EDTA or Trypsin-EDTA solution (0.05% trypsin/0.53 mM EDTA). […] Test compounds (10 mM in DMSO) were diluted into PBS containing 0.1% BSA in Beckman Biomek-2000 and tested at 11 different concentrations ranging from 100 μM to 1 pM. […] Data were analyzed by nonlinear regression analysis with the GraphPad Prism Software package (GraphPad Software, Inc., San Diego, Calif.) with the sigmoidal equation.

β2 adrenergic receptor [2] = target: T1, β2 adrenergic receptor; experiment: Whole-cell cAMP Flashplate assay with lung epithelial cell line (BEAS-2B) endogenously expressing human β2 adrenergic receptor; design: a cell line expressing endogenous levels of the β2 adrenergic receptor, a human lung epithelial cell line (BEAS-2B) was used; host or cells: BEAS-2B human lung epithelial cells; settings: BEAS-2B human lung epithelial cell line, endogenous receptor
Experimental: On the day of the assay, cells were rinsed with PBS, lifted by scraping with 5 mM EDTA in PBS, and counted. Cells were pelleted by centrifugation at 1,000 rpm and re-suspended in stimulation buffer pre-warmed to 37° C. at a final concentration of 600,000 cells/mL. Cells were used at a final concentration of 100,000 to 120,000 cells/well in this assay. […] Test compounds were tested in the assay at 11 different concentrations, ranging from 10 μM to 10 pM. Reactions were incubated for 10 min at 37° C. and stopped by addition of 100 μL of ice-cold detection buffer. Plates were sealed, incubated over night at 4° C. and counted the next morning in a Topcount scintillation counter (Packard BioScience Co., Meriden, Conn.). […] Data were analyzed by nonlinear regression analysis with the GraphPad Prism Software package (GraphPad Software, Inc., San Diego, Calif.) using the 4-parameter model for sigmoidal dose-response.

hM1 receptor = target: T2, hM1 receptor (Homo sapiens, UniProt P11229); experiment: Blockade of agonist-mediated calcium release via FLIPR assay (hM1); settings: CHO cells stably expressing hM1
T2 construct: expressed in transfected cells
T2 sequence (P11229 1-460): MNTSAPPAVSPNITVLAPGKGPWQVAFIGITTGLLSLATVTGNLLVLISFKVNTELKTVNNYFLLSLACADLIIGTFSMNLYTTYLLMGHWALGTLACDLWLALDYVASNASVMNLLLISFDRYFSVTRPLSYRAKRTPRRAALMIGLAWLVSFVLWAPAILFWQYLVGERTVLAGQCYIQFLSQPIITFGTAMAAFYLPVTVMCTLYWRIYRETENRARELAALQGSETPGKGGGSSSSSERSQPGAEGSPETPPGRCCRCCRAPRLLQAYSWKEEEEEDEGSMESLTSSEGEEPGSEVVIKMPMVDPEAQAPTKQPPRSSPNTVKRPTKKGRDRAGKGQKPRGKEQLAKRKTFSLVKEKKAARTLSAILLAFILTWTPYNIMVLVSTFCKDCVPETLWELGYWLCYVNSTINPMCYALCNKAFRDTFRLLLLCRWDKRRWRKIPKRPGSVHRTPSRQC
Source text: B. Blockade of Agonist-Mediated Calcium Release Via FLIPR Assays
Muscarinic receptor subtypes (M1, M3 and M5 receptors), which couple to Gq proteins, activate the phospholipase C (PLC) pathway upon agonist binding to the receptor. As a result, activated PLC hydrolyzes phosphatyl inositol diphosphate (PIP2) to diacylglycerol (DAG) and phosphatidyl-1,4,5-triphosphate (IP3), which in turn generates calcium release from intracellular stores, i.e., endoplasmic and sarcoplasmic reticulum. […] This fluorescence event is measured in real time by the FLIPR, which detects the change in fluorescence from a monolayer of cells cloned with human M1 and M3, and chimpanzee M5 receptors. Antagonist potency can be determined by the ability of antagonists to inhibit agonist-mediated increases in intracellular calcium. […]
To determine antagonist potency, the dose-dependent stimulation of intracellular Ca^2+ release for oxotremorine was first determined so that antagonist potency can later be measured against oxotremorine stimulation at an EC90 concentration. […]
The parameters used for the FLIPR were: exposure length of 0.4 seconds, laser strength of 0.5 watts, excitation wavelength of 488 nm, and emission wavelength of 550 nm. Baseline was determined by measuring the change in fluorescence for 10 seconds prior to addition of agonist. […]

T1 sequence (P07550 whole entry): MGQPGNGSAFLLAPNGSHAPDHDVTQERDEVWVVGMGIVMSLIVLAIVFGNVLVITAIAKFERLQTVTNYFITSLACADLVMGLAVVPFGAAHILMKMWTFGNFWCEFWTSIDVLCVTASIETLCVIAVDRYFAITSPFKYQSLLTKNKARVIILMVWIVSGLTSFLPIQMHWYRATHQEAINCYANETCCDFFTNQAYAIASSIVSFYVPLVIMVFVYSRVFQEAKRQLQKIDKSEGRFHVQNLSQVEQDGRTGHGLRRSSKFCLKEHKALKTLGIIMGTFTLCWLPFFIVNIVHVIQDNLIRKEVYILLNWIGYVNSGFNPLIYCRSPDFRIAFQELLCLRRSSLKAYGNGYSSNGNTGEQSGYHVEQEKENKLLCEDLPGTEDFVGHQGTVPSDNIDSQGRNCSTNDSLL

COc1cc(NC(=O)CCN2CCC(OC(=O)Nc3ccccc3-c3ccccc3)CC2)c(Cl)cc1CNC[C@H](O)c1ccc(O)c2[nH]c(=O)ccc12 [compound of formula I, biphenyl-2-ylcarbamic acid 1-[2-(2-chloro-4-{[(R)-2-hydroxy-2-(8-hydroxy-2-oxo-1,2-dihydroquinolin-5-yl)ethylamino]methyl}-5-methoxyphenylcarbamoyl)ethyl]piperidin-4-yl ester]
< 10 nM: EC50 (β2 adrenergic receptor [1]) | EC50 (β2 adrenergic receptor [2]) | Ki (hM1 receptor)
